How the values were obtained:
[1] = system: smallflower flatsedge; experiment: Test B flood test smallflower flatsedge; format: in vivo, Cyperus difformis
Method in brief: (§1)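 Flood test on plants grown to the 2-leaf stage; treated plants kept in greenhouse twelve to sixteen days, then visually rated against controls on a 0 (no effect) to 10 (complete control) scale.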

[2] = system: blackgrass; experiment: Test B pre/postemergence blackgrass; format: in vivo, Alopecurus myosuroides
Method in brief: (§2)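 Herbicidal effect was estimated by eye on a ten-point control scale after plants spent twelve to sixteen days in a greenhouse following soil or foliar treatment. Foliar sprays targeted plants at one to four leaves; all doses were formulated in a non-phytotoxic solvent with surfactant.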

[3] = system: giant foxtail; experiment: Test B pre/postemergence giant foxtail; format: in vivo, Setaria faberii
Method in brief: as §2

[4] = system: wheat; experiment: Test B pre/postemergence wheat; format: in vivo, Triticum aestivum
Method in brief: as §2

[5] = system: duck salad; experiment: Test B flood test duck salad; format: in vivo, Heteranthera limosa
Method in brief: as §1

[6] = system: corn; experiment: Test B pre/postemergence corn; format: in vivo, Zea mays
Method in brief: as §2

[7] = system: soybean; experiment: Test B pre/postemergence soybean; format: in vivo, Glycine max
Method in brief: as §2

[8] = system: purple nutsedge; experiment: Test B pre/postemergence purple nutsedge; format: in vivo, Cyperus rotundus
Method in brief: as §2

[9] = system: surinam grass; experiment: Test B pre/postemergence surinam grass; format: in vivo, Brachiaria decumbens
Method in brief: as §2

[10] = system: crabgrass; experiment: Test B pre/postemergence crabgrass; format: in vivo, Digitaria sanguinalis
Method in brief: as §2

[11] = system: bedstraw; experiment: Test B pre/postemergence bedstraw; format: in vivo, Galium aparine
Method in brief: as §2

[12] = system: sugar beet; experiment: Test B pre/postemergence sugar beet; format: in vivo, Beta vulgaris
Method in brief: as §2

[13] = system: velvetleaf; experiment: Test B pre/postemergence velvetleaf; format: in vivo, Abutilon theophrasti
Method in brief: as §2

[14] = system: cocklebur; experiment: Test B pre/postemergence cocklebur; format: in vivo, Xanthium strumarium
Method in brief: as §2

[15] = system: bamyardgrass; experiment: Test B flood test barnyardgrass; format: in vivo, Echinochloa crus-galli
Method in brief: as §1

[16] = system: rice; experiment: Test B flood test rice; format: in vivo, Oryza sativa
Method in brief: as §1

[17] = system: rape; experiment: Test B pre/postemergence rape; format: in vivo, Brassica napus
Method in brief: as §2

[18] = Postemergence, Rate 62 g/ha, scale 0 to 10, 0 is no effect, 10 is complete control
[19] = Rate 125 g/ha, Postemergence section (flood test species), scale 0 to 10, 0 no effect, 10 complete control
[20] = flood test, listed under Postemergence, Rate 250 g/ha, scale 0 to 10, 0 no effect, 10 complete control
[21] = Postemergence, Rate 250 g/ha, scale 0 to 10, 0 no effect, 10 complete control
[22] = Preemergence, Rate 62 g/ha, scale 0 to 10, 0 is no effect, 10 is complete control
[23] = Preemergence, Rate 125 g/ha, scale 0 to 10 (0 no effect, 10 complete control)
[24] = Preemergence, Rate 250 g/ha, scale of 0 to 10 where 0 is no effect and 10 is complete control
[25] = Preemergence, Rate 500 g/ha, scale 0 (no effect) to 10 (complete control)
[26] = Rate 125 g/ha, Postemergence, scale 0 to 10, 0 no effect, 10 complete control
[27] = Rate 500 g/ha, Postemergence, 0 to 10 scale (0 no effect, 10 complete control)
[28] = Rate 500 g/ha, Postemergence section of Table B, 0 to 10 scale (0 no effect, 10 complete control)

CC(C)N(C(=O)n1oc(=O)n(-c2c(Cl)cccc2Cl)c1=O)c1ccc(F)cc1 [Compound 19]
S. Flatsedge plant response rating [1, 18]: 0 | S. Flatsedge plant response rating [1, 19]: 0 | S. Flatsedge plant response rating [1, 20]: 0 | Blackgrass plant response rating [2, 18]: 0 | Blackgrass plant response rating [2, 21]: 0 | Plant response rating, Blackgrass [2, 22]: 0 | Plant response rating, Blackgrass [2, 23]: 2 | Plant response rating, Blackgrass [2, 24]: 2 | Blackgrass plant response rating [2, 25]: 3 | Blackgrass plant response rating [2, 26]: 0 | Blackgrass plant response rating [2, 27]: 2 | Giant foxtail plant response rating [3, 18]: 0 | Giant foxtail plant response rating [3, 21]: 0 | Plant response rating, Giant foxtail [3, 22]: 0 | Plant response rating, Giant foxtail [3, 23]: 2 | Plant response rating, Giant foxtail [3, 24]: 4 | Giant foxtail plant response rating [3, 25]: 5 | Giant foxtail plant response rating [3, 26]: 0 | Giant foxtail plant response rating [3, 27]: 1 | Wheat plant response rating [4, 18]: 0 | Wheat plant response rating [4, 21]: 0 | Plant response rating, Wheat [4, 22]: 0 | Plant response rating, Wheat [4, 23]: 0 | Plant response rating, Wheat [4, 24]: 0 | Wheat plant response rating [4, 25]: 0 | Wheat plant response rating [4, 26]: 0 | Ducksalad plant response rating [5, 18]: 0 | Ducksalad plant response rating [5, 19]: 0 | Ducksalad plant response rating [5, 28]: 0 | Ducksalad plant response rating [5, 20]: 0 | Corn plant response rating [6, 18]: 0 | Corn plant response rating [6, 21]: 0 | Plant response rating, Corn [6, 22]: 0 | Plant response rating, Corn [6, 23]: 0 | Plant response rating, Corn [6, 24]: 0 | Corn plant response rating [6, 25]: 0 | Corn plant response rating [6, 26]: 0 | Corn plant response rating [6, 27]: 0 | Soybean plant response rating [7, 18]: 2 | Soybean plant response rating [7, 21]: 3 | Plant response rating, Soybean [7, 22]: 0 | Plant response rating, Soybean [7, 23]: 0 | Plant response rating, Soybean [7, 24]: 0 | Soybean plant response rating [7, 25]: 0 | Soybean plant response rating [7, 26]: 3 | Nutsedge plant response rating [8, 18]: 0 | Nutsedge plant response rating [8, 21]: 0 | Plant response rating, Nutsedge [8, 22]: 0 | Plant response rating, Nutsedge [8, 23]: 0 | Plant response rating, Nutsedge [8, 24]: 0 | Nutsedge plant response rating [8, 25]: 0 | Nutsedge plant response rating [8, 26]: 0 | Nutsedge plant response rating [8, 27]: 0 | B. signalgrass plant response rating [9, 18]: 0 | B. signalgrass plant response rating [9, 21]: 0 | Plant response rating, B. signalgrass [9, 22]: 0 | Plant response rating, B. signalgrass [9, 23]: 2 | Plant response rating, B. signalgrass [9, 24]: 2 | B. signalgrass plant response rating [9, 25]: 2 | B. signalgrass plant response rating [9, 26]: 0 | B. signalgrass plant response rating [9, 27]: 0 | Crabgrass plant response rating [10, 18]: 0 | Crabgrass plant response rating [10, 21]: 0 | Plant response rating, Crabgrass [10, 22]: 3 | Plant response rating, Crabgrass [10, 23]: 5 | Plant response rating, Crabgrass [10, 24]: 7 | Crabgrass plant response rating [10, 25]: 10 | Crabgrass plant response rating [10, 26]: 0 | Bedstraw plant response rating [11, 18]: 2 | Bedstraw plant response rating [11, 21]: 7 | Plant response rating, Bedstraw [11, 22]: 0 | Plant response rating, Bedstraw [11, 23]: 0 | Plant response rating, Bedstraw [11, 24]: 0 | Bedstraw plant response rating [11, 25]: 0 | Bedstraw plant response rating [11, 26]: 6 | Bedstraw plant response rating [11, 27]: 8 | Sugarbeets plant response rating [12, 18]: 0 | Sugarbeets plant response rating [12, 21]: 0 | Plant response rating, Sugarbeets [12, 22]: 0 | Plant response rating, Sugarbeets [12, 23]: 0 | Plant response rating, Sugarbeets [12, 24]: 1 | Sugarbeets plant response rating [12, 25]: 2 | Sugarbeets plant response rating [12, 26]: 0 | Velvetleaf plant response rating [13, 18]: 0 | Velvetleaf plant response rating [13, 21]: 0 | Plant response rating, Velvetleaf [13, 22]: 0 | Plant response rating, Velvetleaf [13, 23]: 0 | Plant response rating, Velvetleaf [13, 24]: 0 | Velvetleaf plant response rating [13, 25]: 0 | Velvetleaf plant response rating [13, 26]: 0 | Cocklebur plant response rating [14, 18]: 0 | Cocklebur plant response rating [14, 21]: 0 | Plant response rating, Cocklebur [14, 22]: 0 | Plant response rating, Cocklebur [14, 24]: 0 | Cocklebur plant response rating [14, 25]: 0 | Cocklebur plant response rating [14, 26]: 0 | Cocklebur plant response rating [14, 27]: 0 | Barnyardgrass plant response rating [15, 18]: 0 | Barnyardgrass plant response rating [15, 19]: 0 | Barnyardgrass plant response rating [15, 28]: 0 | Barnyardgrass plant response rating [15, 20]: 0 | Rice plant response rating [16, 18]: 0 | Rice plant response rating [16, 19]: 0 | Rice plant response rating [16, 28]: 0 | Rice plant response rating [16, 20]: 0 | Rape plant response rating [17, 18]: 0 | Rape plant response rating [17, 21]: 0 | Plant response rating, Rape [17, 22]: 0 | Plant response rating, Rape [17, 23]: 0 | Plant response rating, Rape [17, 24]: 0 | Rape plant response rating [17, 25]: 3 | Rape plant response rating [17, 26]: 0 | Rape plant response rating [17, 27]: 0
